According to patent publication US8871465B2 (priority 2009, dated 2014):

Assays:
[1] = Stability of the substrate in aqueous medium; assay type: physicochemical; conditions: medium at pH 7.2; a pH of 6.8 is required
[2] = as indicated in U.S. Pat. No. 6,558,917; cited from earlier work
[3] = system: Bacillus subtilis ATCC 6051; conditions: 37° C., pH 7.2, 1 000 CFU, detection threshold 30 000 RFU
Experimental: (§1) Various pure strains of the Bacillus genus and also other Gram-positive bacteria were tested in a microplate in the presence of the medium below. A reading of the appearance of the fluorescence in each of the various wells of the microplate was then performed at different times over the course of 44 h of incubation at 37° C.
(§2) The medium having the following composition was used (composition in g/l), pH 7.2:
(§3) The wells of the microplate are inoculated with 10 colony-forming units (CFU) of bacteria of the Bacillus cereus group and 1 000 CFU for the other Bacillus that are non cereus and other Gram-positive bacteria. The microplate is then incubated for 44 h at 37° C. in a microplate reader in order to evaluate the PC-PLC activity of these various strains in the form of kinetics of hydrolysis of the substrate 4 MU-CP, i.e to detect and measure the appearance of fluorescence. The detection threshold of the measuring apparatus is fixed at 30 000 RFU (relative fluorescence unit).

L. ivanovii 0002147 = conditions: 37° C., pH 7.2, 1 000 CFU, detection threshold 30 000 RFU
Experimental: as §1, §2, §3

L. ivanovii ATCC 49954 = conditions: 37° C., pH 7.2, 1 000 CFU, detection threshold 30 000 RFU
Experimental: as §1, §2, §3

L. monocytogenes 0301902 = conditions: 37° C., pH 7.2, 1 000 CFU, detection threshold 30 000 RFU
Experimental: as §1, §2, §3

[4] = system: L. monocytogenes ATCC 19118; conditions: 37° C., pH 7.2, 1 000 CFU, detection threshold 30 000 RFU
Experimental: as §1, §2, §3

S. aureus 25923 = conditions: 37° C., pH 7.2, 1 000 CFU, detection threshold 30 000 RFU
Experimental: as §1, §2, §3

S. aureus 8407603 = conditions: 37° C., pH 7.2, 1 000 CFU, detection threshold 30 000 RFU
Experimental: as §1, §2, §3

[5] = system: Bacillus cereus ATCC 7064; conditions: pH 7.2
[6] = system: ATCC 6464 (Bacillus cereus group); conditions: pH 7.2
[7] = system: ATCC 9139 (Bacillus cereus group); conditions: pH 7.2
[8] = system: ATCC 10876 (Bacillus cereus group); conditions: pH 7.2
[9] = system: ATCC 33019 (Bacillus cereus group); conditions: pH 7.2
[10] = system: NCTC 11145 (Bacillus cereus group); conditions: pH 7.2
[11] = system: 0240015 (Bacillus cereus group); conditions: pH 7.2
[12] = system: ATCC 6463 (Bacillus cereus group); conditions: pH 7.2
[13] = system: Bacillus licheniformis 93.08.043; conditions: pH 7.2
[14] = system: Bacillus sphaericus 8710054; conditions: pH 7.2
[15] = system: Bacillus circulans ATCC 4513; conditions: pH 7.2
[16] = system: Bacillus lentus ATCC 10840; conditions: pH 7.2
[17] = system: Bacillus pumilus ATCC 7061; conditions: pH 7.2
[18] = system: PaeniBacillus polymyxa ATCC 21551; conditions: pH 7.2
[19] = system: Bacillus megaterium ATCC 14581; conditions: pH 7.2
Bacillus cereus = conditions: pH 7.2
[20] = system: other Gram-positive bacteria; conditions: pH 7.2
[21] = system: Bacillus cereus ATCC 7064

For `Cc1cc(=O)oc2cc(OP(=O)(O)OC3C(O)C(O)C(O)C(O)C3O)ccc12` (stereo not shown) [4 MU-MIP, 4-methylumbelliferyl myoinositol-1-phosphate], the “Stability of the substrate at pH 7.2” value [1] is given as “instability of the substrate being too great” and the “Stability in an aqueous medium” value [2] is given as “reduced stability”.

With `Cc1cc(=O)oc2cc(OP(=O)([O-])OCC[N+](C)(C)C)ccc12` [4 MU-PC, 4-methylumbelliferyl choline phosphate] the “Levels of fluorescence in 24 h” value ([3]; 24 h) was 10000 RFU, the “Levels of fluorescence in 40 h” value ([3]; 40 h) was 20000 RFU and the “Levels of fluorescence in 24 h” value (L. ivanovii 0002147; 24 h) was 2000 RFU. The “Levels of fluorescence in 40 h” value (L. ivanovii 0002147; 40 h) was 10000 RFU, the “Levels of fluorescence in 24 h” value (L. ivanovii ATCC 49954; 24 h) was 2000 RFU and the “Levels of fluorescence in 40 h” value (L. ivanovii ATCC 49954; 40 h) was 10000 RFU. For the same compound, the “Levels of fluorescence in 24 h” value (L. monocytogenes 0301902; 24 h) was 5000 RFU, the “Levels of fluorescence in 40 h” value (L. monocytogenes 0301902; 40 h) was 10000 RFU and the “Levels of fluorescence in 24 h” value ([4]; 24 h) was 4000 RFU. The “Levels of fluorescence in 40 h” value ([4]; 40 h) was 15000 RFU, the “Levels of fluorescence in 24 h” value (S. aureus 25923; 24 h) was 2000 RFU and the “Levels of fluorescence in 40 h” value (S. aureus 25923; 40 h) was 2000 RFU. For the same compound, the “Levels of fluorescence in 24 h” value (S. aureus 8407603; 24 h) was 2000 RFU, the “Levels of fluorescence in 40 h” value (S. aureus 8407603; 40 h) was 2000 RFU and the “Levels of fluorescence in 24 h” value [5] was greater than 60000 RFU. For the same compound, the “Levels of fluorescence in 40 h” value [5] was greater than 60000 RFU, the “Levels of fluorescence in 24 h” value [6] was greater than 60000 RFU and the “Levels of fluorescence in 40 h” value [6] was greater than 60000 RFU. The “Levels of fluorescence in 24 h” value [7] was greater than 60000 RFU, the “Levels of fluorescence in 40 h” value [7] was greater than 60000 RFU and the “Levels of fluorescence in 24 h” value [8] was greater than 60000 RFU. The “Levels of fluorescence in 40 h” value [8] was greater than 60000 RFU, the “Levels of fluorescence in 24 h” value [9] was greater than 60000 RFU and the “Levels of fluorescence in 40 h” value [9] was greater than 60000 RFU. For the same compound, the “Levels of fluorescence in 24 h” value [10] was greater than 60000 RFU, the “Levels of fluorescence in 40 h” value [10] was greater than 60000 RFU and the “Levels of fluorescence in 24 h” value [11] was greater than 60000 RFU. For the same compound, the “Levels of fluorescence in 40 h” value [11] was greater than 60000 RFU, the “Levels of fluorescence in 24 h” value [12] was greater than 60000 RFU and the “Levels of fluorescence in 40 h” value [12] was greater than 60000 RFU. The “Levels of fluorescence in 24 h” value [13] was 2000 RFU, the “Levels of fluorescence in 40 h” value [13] was 2000 RFU and the “Levels of fluorescence in 24 h” value [14] was 20000 RFU. The “Levels of fluorescence in 40 h” value [14] was greater than 60000 RFU, the “Levels of fluorescence in 24 h” value [15] was 10000 RFU and the “Levels of fluorescence in 40 h” value [15] was 20000 RFU. For the same compound, the “Levels of fluorescence in 24 h” value [16] was 5000 RFU, the “Levels of fluorescence in 40 h” value [16] was 10000 RFU and the “Levels of fluorescence in 24 h” value [17] was 5000 RFU. The “Levels of fluorescence in 40 h” value [17] was 10000 RFU, the “Levels of fluorescence in 24 h” value [18] was 5000 RFU and the “Levels of fluorescence in 40 h” value [18] was 10000 RFU. For the same compound, the “Levels of fluorescence in 24 h” value [19] was 5000 RFU, the “Levels of fluorescence in 40 h” value [19] was 5000 RFU and the “Incubation time to positive signal (PC-PLC activity)” value (Bacillus cereus) was no less than 15 h. For the same compound, the “Incubation time to positive signal (PC-PLC activity)” value [20] was greater than 40 h and the “Reduction of the detection time at pH 7.2 compared with pH 6.8” value [21] was 10 h.
